# Columns and labels:
# Mu89 tumors [1] = experiment: TSP-1 immunostaining of tumor sections; assay type: in vivo, SCID mice; conditions: losartan treatment
# From the text: (§1) TSP-1 is a key regulator of TGF-β1 activation and losartan has been reported to reduce TSP-1 expression and TGF-β1 activation in mouse models of Marfan's syndrome and muscular dystrophy (Dietz H C (2010) J Clin Invest 120:403-407). […] In both Mu89 and HSTS26T tumors the immunostaining patterns for TSP-1 (FIGS. 7A-7B) and collagen I (FIGS. 5C-5D) were closely matched. The inventors detected high levels of TSP-1 and collagen I in the tumor margin, while losartan induced obvious reductions in TSP-1 and collagen I levels in the tumor center (FIGS. 5C, 7A).
# (§2) Frozen sections were cut into 10 μm sections for immunohistochemistry and imaging. Collagen I was detected using the LF-67 antibody (1:100 dilution) with a previously described protocol (Znati C A, et al. (2003) Clin Cancer Res 9:5508-5513). TSP-1 was detected with a goat anti-human antibody (1:50 dilution), which cross-reacts with mice (sc-12312, Santa Cruz Biotechnology Inc., Santa Cruz, Calif.). For collagen and TSP-1 analysis, images at 20× magnification were taken randomly from each slide. The collagen and TSP-1 content was determined by measuring the number of pixels above a threshold value that was set based on the average intensity value of pixels from all slides under analysis. The background-signal intensity for both collagen I and thrombospondin-1 immunostaining was low and uniform.
# HSTS26T tumors [2] = experiment: TSP-1 immunostaining of tumor sections; assay type: in vivo, SCID mice; conditions: losartan treatment
# From the text: as §1, §2
# Mu89 tumors [3] = experiment: In vivo proliferation (Ki67 staining); set-up: species or system mice; conditions: after losartan treatment
# From the text: (§3) Tumors were resected and stained for Ki67 to assess proliferation rates. […] There was however a significant difference in proliferation between the two tumor types, the number of Ki67 positive cells was 3 fold higher in HSTS26T tumors.
# (§4) Ki67 staining was done on paraffin sections 21 days after HSV injection. Slides were microwave processed with Target Retrieval Solution (DAKO, Carpinteria, Calif.) prior to primary antibody detection. The entire tumor section was imaged at 2× magnification and reconstituted as a mosaic. Twenty regions were randomly selected in each tumor. The fraction of Ki67 positive cells in each region was determined by manual count.
# HSTS26T tumors [4] = experiment: In vivo proliferation (Ki67 staining); set-up: species or system mice; conditions: after losartan treatment
# From the text: as §3, §4
# HSTS26T tumors [5] = experiment: Vascular density in tumors; conditions: in vivo
# [6] = Losartan bioanalysis: plasma and tumor levels (HPLC/FLU); conditions: male, FVB, mouse, subcutaneous
# tumors = experiment: Solid stress after a panel of ARBs; assay type: in vivo; conditions: 40 mg/kg losartan, 3.2 mg/kg candesartan, 32 mg/kg valsartan
# Description: Solid stress levels in tumors after angiotensin inhibition using the ARBs losartan, candesartan, and valsartan are shown. Doses were chosen based on their relative doses in patients for hypertension indications (40 mg/kg losartan, 3.2 mg/kg candesartan, 32 mg/kg valsartan). […] Animal numbers n=6-7. Statistical tests were corrected for multiple comparisons using the Holm-Bonferroni method.
# The mechanism responsible for the increase in tumor vessel perfusion by losartan was investigated. Desmoplasia, high stromal cell and matrix density, is a major contributor to the solid stress accumulation that compresses vessels (Stylianopoulos T, et al., Growth-induced mechanical stress in murine and human tumors: causes, consequences and remedies. under review. 2012). Since angiotensin inhibitors reduce matrix production in tumors (Diop-Frimpong B, et al., Proc Natl Acad Sci USA. 2011; 108(7): 2909-14), it was hypothesized that they decompress vessels and increase perfusion by decreasing solid stress. Collagen levels were used as a metric of matrix production as described in Diop-Frimpong et al., Proc Nall Acad Sci USA. […] Moreover, losartan decreased collagen I concentration, measured based on staining intensity, in E0771 and AK4.4 tumors (FIGS. 24B-24C). Of note, dense collagen seemed to colocalize with low-perfusion areas (FIG. 24C). Next, solid stress in these tumors was measured using recently established technique described in Stylianopoulos T, et al., Growth-induced mechanical stress in murine and human tumors: causes, consequences and remedies. under review. 2012. […]
# Solid stress: Solid stress was measured using the tumor opening technique as described previously (Stylianopoulos T, et al., Growth-induced mechanical stress in murine and human tumors: causes, consequences and remedies. under review. 2012). […] Subsequently, each tumor was excised, washed with Hanks' Balanced Salt Solution (HBSS) and its three dimensions were measured. […] Afterwards, the opening resulting from the cut was measured at the middle of the cut at the surface of the tumor. […]
smiles,measurement,setting,value
CCCCc1nc(Cl)c(CO)n1Cc1ccc(-c2ccccc2-c2nn[nH]n2)cc1 [losartan],decrease in TSP-1 immunostaining,Mu89 tumors [1],24%
same,decrease in TSP-1 immunostaining,HSTS26T tumors [2],73%
same,positive Ki67 staining,Mu89 tumors [3],no statistically significant difference
same,positive Ki67 staining,HSTS26T tumors [4],no statistically significant difference
same,tumor growth or vascular density,HSTS26T tumors [5],did not affect
same,concentration at 2 h,"[6]; plasma, 40 mg/kg, Plasma 2 hr level, Day 14, Group 3: losartan subcutaneous injection without pump 40 mg/kg daily",423 ng/mL
same,concentration at 2 h,"[6]; plasma, 40 mg/kg, Plasma 2 hr level, Day 19, Group 3: losartan subcutaneous injection without pump 40 mg/kg daily",152 ng/mL
same,concentration at 6 h,"[6]; plasma, 40 mg/kg, Plasma 6 hr level, Day 14, Group 3: losartan subcutaneous injection without pump 40 mg/kg daily",11 ng/mL
same,concentration at 6 h,"[6]; plasma, 40 mg/kg, Plasma 6 hr level, Day 19, Group 3: losartan subcutaneous injection without pump 40 mg/kg daily",28 ng/mL
same,concentration at 2 h,"[6]; plasma, 40 mg/kg/day, Plasma 2 hr level, Day 14, Group 2: losartan via subcutaneous pump 40 mg/kg/day",227 ng/mL
same,concentration at 2 h,"[6]; plasma, 40 mg/kg/day, Plasma 2 hr level, Day 19, Group 2: losartan via subcutaneous pump 40 mg/kg/day",370 ng/mL
same,concentration at 6 h,"[6]; plasma, 40 mg/kg/day, Plasma 6 hr level, Day 14, Group 2: losartan via subcutaneous pump 40 mg/kg/day",304 ng/mL
same,concentration at 6 h,"[6]; plasma, 40 mg/kg/day, Plasma 6 hr level, Day 19, Group 2: losartan via subcutaneous pump 40 mg/kg/day",376 ng/mL
same,concentration at 2 h,"[6]; tumor, 40 mg/kg, Tumor 2 hr level, Day 14, Group 3: losartan subcutaneous injection without pump 40 mg/kg daily",163 ng/mL
same,concentration at 2 h,"[6]; tumor, 40 mg/kg, Tumor 2 hr level, Day 19, Group 3: losartan subcutaneous injection without pump 40 mg/kg daily",41 ng/mL
same,concentration at 6 h,"[6]; tumor, 40 mg/kg, Tumor 6 hr level, Day 14, Group 3: losartan subcutaneous injection without pump 40 mg/kg daily",21 ng/mL
same,concentration at 6 h,"[6]; tumor, 40 mg/kg, Tumor 6 hr level, Day 19, Group 3: losartan subcutaneous injection without pump 40 mg/kg daily",54 ng/mL
same,concentration at 2 h,"[6]; tumor, 40 mg/kg/day, Tumor 2 hr level, Day 14, Group 2: losartan via subcutaneous pump 40 mg/kg/day",50 ng/mL
same,concentration at 2 h,"[6]; tumor, 40 mg/kg/day, Tumor 2 hr level, Day 19, Group 2: losartan via subcutaneous pump 40 mg/kg/day",56.1 ng/mL
same,concentration at 6 h,"[6]; tumor, 40 mg/kg/day, Tumor 6 hr level, Day 14, Group 2: losartan via subcutaneous pump 40 mg/kg/day",57 ng/mL
same,concentration at 6 h,"[6]; tumor, 40 mg/kg/day, Tumor 6 hr level, Day 19, Group 2: losartan via subcutaneous pump 40 mg/kg/day",66 ng/mL
same,solid stress,tumors,reduce solid stress to a similar degree

# Reference: US20130287688A1, “NOVEL COMPOSITIONS AND USES OF ANTI-HYPERTENSION AGENTS FOR CANCER THERAPY” (XTUIT PHARMACEUTICALS, INC., priority 2010, published 2013)
